Test results: PMC10290043, “Pharmacokinetics, safety, and antitumor activity of talazoparib monotherapy in Chinese patients with advanced solid tumors” (Investigational New Drugs, 2023)
Entries after “also recorded” stand apart in the source; their conditions may differ. Like-named read-outs stand apart in the source and are kept apart here.

Assays:
[1] = Safety: treatment-emergent adverse events, NCT04635631; type: in vivo, human; conditions: for Any AE: safety population N=15, 1 mg QD
Source text: AE reporting included data up to 28 days after last dose of study drug or to start of new anticancer drug therapy Day -1 (whichever came first). For AEs, Medical Dictionary for Regulatory Activities (MedDRA), version 24.0, coding was applied.
All patients who had received at least 1 dose of talazoparib were included in the safety and efficacy analysis sets. All treated patients with at least 1 PK concentration in the single-dose and/or multiple-dose PK part were included in the PK concentration analysis set, and all treated patients with at least 1 of the PK parameters of primary interest in the single-dose and/or multiple-dose PK part were included in the PK parameter analysis set. All patients in the PK parameter analysis set who completed both the single-dose PK and multiple-dose PK parts without major protocol deviations were included in the PK evaluable analysis set.

advanced solid tumors = experiment: Antitumor activity: best overall response / unconfirmed objective response by investigator assessment; type: in vivo, human
Procedure: Tumor assessments were performed on Day 29 and every 8 weeks thereafter for the initial 12 cycles, regardless of any dose interruptions or dose delays, and then performed per local standard practice after completion of Cycle 12. […] Unconfirmed objective response by investigator assessment was defined as a complete (disappearance of all target lesions) or partial (at least 30% decrease in the sum of diameters of target lesions) response recorded from Cycle 1 Day 1 until disease progression, start of subsequent anticancer therapy, or death due to any cause. Given the exploratory nature of the efficacy endpoint, confirmation of response was not required. Duration of response, calculated as the time from first documentation of complete response or partial response to date of first documentation of objective progression or death, was only calculated for the subgroup of patients with an unconfirmed objective response. All patients who had received at least 1 dose of talazoparib were included in the safety and efficacy analysis sets. All treated patients with at least 1 PK concentration in the single-dose and/or multiple-dose PK part were included in the PK concentration analysis set, and all treated patients with at least 1 of the PK parameters of primary interest in the single-dose and/or multiple-dose PK part were included in the PK parameter analysis set. All patients in the PK parameter analysis set who completed both the single-dose PK and multiple-dose PK parts without major protocol deviations were included in the PK evaluable analysis set.

[2] = Japanese patients, cited from earlier work; for Cmax / Tmax: ref Naito et al 2021 [16]
solid tumors = tested on: solid tumors; parameters: method as in PMID 34160752; conditions: molecularly unselected Japanese patients with solid tumors; cited from earlier work
[3] = cited from earlier work; for Tmax: median (range)
[4] = parameters: method as in PMID 35907135; conditions: 19 Japanese patients with germline BRCA-mutated advanced breast cancer; cited from earlier work
[5] = parameters: method as in PMID 30110579; conditions: EMBRACA, cited from earlier work
[6] = 11 patients with measurable disease at baseline
[7] = patients with measurable disease N=11
[8] = multiple dosing 1 mg QD oral, ref de Bono et al 2017
[9] = single dosing 1 mg oral, ref de Bono et al 2017

Compound: Cn1ncnc1[C@H]1c2n[nH]c(=O)c3cc(F)cc(c23)N[C@@H]1c1ccc(F)cc1 [talazoparib]
- Patients with 1 or more dose reduction due to treatment-related AEs ([1]; 3/15 patients): Twenty percent
- Any-grade treatment-related TEAE: anemia ([1]; N=15): 46.7%
- Any-grade treatment-related TEAE: decreased lymphocyte count ([1]; N=15): 33.3%
- Any-grade treatment-related TEAE: decreased neutrophil count ([1]; N=15): 46.7%
- Any-grade treatment-related TEAE: decreased platelet count ([1]; N=15): 33.3%
- Any-grade treatment-related TEAE: decreased white blood cell count ([1]; N=15): 46.7%
- Any-grade treatment-related TEAE: elevated alanine aminotransferase ([1]; N=15): 33.3%
- Any-grade treatment-related TEAE: elevated aspartate aminotransferase ([1]; N=15): 33.3%
- Patients permanently discontinued because of treatment-related decreased neutrophil count ([1]; N=15): 6.7%
- Patients with dose interruptions due to all-causality AEs ([1]; N=15): 20.0%
- Patients with dose interruptions due to treatment-related AEs ([1]; N=15): 13.3%
- Patients with grade 3 treatment-related TEAEs ([1]; N=15): 20%
- Patients with grade 4 treatment-related TEAEs ([1]; N=15): 13.3%
- Patients with serious all-causality TEAEs ([1]; N=15): 13.3%
- Patients with serious treatment-related TEAEs ([1]; N=15): 13.3%
- Treatment-related grade 3 or 4 TEAE: decreased neutrophil count ([1]; N=15): 20%
- Treatment-related grade 3 or 4 TEAE: decreased platelet count ([1]; N=15): 20%
- Patients with grade 3–4 treatment-related AEs ([1]; N=15, in words): One-third
- Treatment-related grade 3 or 4 TEAE: anemia ([1]; N=15, no grade 4): 20%
- Treatment-related grade 3 or 4 TEAE: hyponatremia ([1]; N=15, no grade 4): 6.7%
- Treatment-related grade 3 or 4 TEAE: neutropenia ([1]; N=15, no grade 4): 6.7%
- Grade 5 TEAEs ([1]; all-causality or treatment-related, N=15): No grade 5 all-causality or treatment-related TEAEs; also recorded: no grade 5 TEAEs
- AEs leading to discontinuation ([1]; all-causality, N=15): 1 (6.7) n (%)
- AEs leading to dose interruption ([1]; all-causality, N=15): 3 (20.0) n (%)
- AEs leading to dose reduction ([1]; all-causality, N=15): 3 (20.0) n (%)
- Grade 3 or 4 AE ([1]; all-causality, N=15): 9 (60.0) n (%)
- Grade 3 or 4 AE: Anemia ([1]; all-causality, N=15): 3 (20.0) n (%)
- Grade 3 or 4 AE: Gamma-glutamyltransferase increased ([1]; all-causality, N=15): 4 (26.7%) n (%)
- Grade 3 or 4 AE: Neutrophil count decreased ([1]; all-causality, N=15): 3 (20.0) n (%)
- Grade 3 or 4 AE: Platelet count decreased ([1]; all-causality, N=15): 3 (20.0) n (%)
- Grade 5 AE (Death due to AE) ([1]; all-causality, N=15): 0 n (%)
- Patients with any SAE ([1]; all-causality, N=15): 2 (13.3) n (%)
- SAE: Anemia ([1]; all-causality, N=15): 1 (6.7) n (%)
- SAE: Hypernatremia ([1]; all-causality, N=15): 1 (6.7) n (%)
- SAE: Hyponatremia ([1]; all-causality, N=15): 1 (6.7) n (%)
- SAE: Neutrophil count decreased ([1]; all-causality, N=15): 1 (6.7) n (%)
- SAE: Platelet count decreased ([1]; all-causality, N=15): 1 (6.7) n (%)
- Any AE ([1]; all-causality): 14 (93.3) n (%)
- Patients with all-causality TEAEs ([1]; safety population N=15): 93.3%
- Patients with treatment-related TEAEs ([1]; safety population N=15): 86.7%
- AEs leading to discontinuation ([1]; treatment-related, N=15): 1 (6.7) n (%)
- AEs leading to dose interruption ([1]; treatment-related, N=15): 2 (13.3) n (%)
- AEs leading to dose reduction ([1]; treatment-related, N=15): 3 (20.0) n (%)
- Grade 3 or 4 AE ([1]; treatment-related, N=15): 5 (33.3) n (%)
- Grade 3 or 4 AE: Anemia ([1]; treatment-related, N=15): 3 (20.0) n (%)
- Grade 3 or 4 AE: Gamma-glutamyltransferase increased ([1]; treatment-related, N=15): 0 n (%)
- Grade 3 or 4 AE: Neutrophil count decreased ([1]; treatment-related, N=15): 3 (20.0) n (%)
- Grade 3 or 4 AE: Platelet count decreased ([1]; treatment-related, N=15): 3 (20.0) n (%)
- Grade 5 AE (Death due to AE) ([1]; treatment-related, N=15): 0 n (%)
- Patients with any SAE ([1]; treatment-related, N=15): 2 (13.3) n (%)
- SAE: Anemia ([1]; treatment-related, N=15): 1 (6.7) n (%)
- SAE: Hypernatremia ([1]; treatment-related, N=15): 0 n (%)
- SAE: Hyponatremia ([1]; treatment-related, N=15): 1 (6.7) n (%)
- SAE: Neutrophil count decreased ([1]; treatment-related, N=15): 1 (6.7) n (%)
- SAE: Platelet count decreased ([1]; treatment-related, N=15): 1 (6.7) n (%)
- Any AE ([1]; treatment-related): 13 (86.7) n (%)
- Patients progressed by data cut-off (advanced solid tumors; [6]): 54.5%
- Patients with stable disease (advanced solid tumors; [6]): 36.4%
- ORR (best overall response of partial response) (advanced solid tumors; 11 patients with measurable disease at baseline, 95% CI 0.2–41.3): 9.1%
- Patients with non-complete response/non-progressive disease (advanced solid tumors; 15 treated patients): 6.7%
- Patients with partial response (advanced solid tumors; 15 treated patients): 6.7%
- Patients with stable disease (advanced solid tumors; 15 treated patients): 26.7%
- Unconfirmed objective response rate (investigator-assessed) (advanced solid tumors; 15 treated patients, 95% CI 0.2–31.9): 6.7%
- Disease control based on best overall response (advanced solid tumors; 15 treated patients, 95% CI 16.3–67.7): 40.0%
- Disease control rate (advanced solid tumors; 95% CI 16.7–76.6): 45.5%
- Best overall response: Complete response (advanced solid tumors; efficacy analysis set N=15): 0 n (%)
- Best overall response: Non-complete response/non-progressive disease (advanced solid tumors; efficacy analysis set N=15): 1 (6.7) n (%)
- Best overall response: Not evaluable (advanced solid tumors; efficacy analysis set N=15): 2 (13.3) n (%)
- Best overall response: Partial response (advanced solid tumors; efficacy analysis set N=15): 1 (6.7) n (%)
- Best overall response: Progressive disease (advanced solid tumors; efficacy analysis set N=15): 7 (46.7) n (%)
- Best overall response: Stable disease (advanced solid tumors; efficacy analysis set N=15): 4 (26.7) n (%)
- Disease control (advanced solid tumors; efficacy analysis set N=15, CR, PR, SD and non-CR/non-PD): 6 (40.0 [16.3–67.7]) n (%, [95% CI])
- Objective response (advanced solid tumors; efficacy analysis set N=15, complete and partial responses, Clopper-Pearson CI): 1 (6.7 [0.2–31.9]) n (%, [95% CI])
- Best overall response: Complete response (advanced solid tumors; [7]): 0 n (%)
- Best overall response: Non-complete response/non-progressive disease (advanced solid tumors; [7]): 0 n (%)
- Best overall response: Not evaluable (advanced solid tumors; [7]): 0 n (%)
- Best overall response: Partial response (advanced solid tumors; [7]): 1 (9.1) n (%)
- Best overall response: Progressive disease (advanced solid tumors; [7]): 6 (54.5) n (%)
- Best overall response: Stable disease (advanced solid tumors; [7]): 4 (36.4) n (%)
- Disease control (advanced solid tumors; [7]): 5 (45.5 [16.7–76.6]) n (%, [95% CI])
- Duration of response (advanced solid tumors; the one responder, measurable disease at baseline): 114 days
- AUCtau ([2]; multiple dose 1 mg QD oral, geometric mean (geometric %CV), ref Naito et al 2021): 244.7 (21) ng.h/mL
- Cmax ([2]; multiple dose 1 mg QD oral, geometric mean (geometric %CV)): 32.84 ng/mL
- Tmax ([2]; multiple dose 1 mg QD oral, median (range)): 1.03 (0.7–1.9) h
- Rac ([2]; multiple dose 1 mg QD, median (range), ref Naito et al 2021): 2.32 (1.70–8.28)
- Cmax ([2]; single dose 1 mg oral, N=6, geometric mean (geometric %CV)): 13.78 ng/mL
- t1/2 ([2]; single dose 1 mg oral, arithmetic mean ± standard deviation, ref Naito et al 2021): 50.73 ± 10.1 h
- AUCinf ([2]; single dose 1 mg oral, geometric mean (geometric %CV), ref Naito et al 2021): 199.7 (9) ng.h/mL
- Tmax ([2]; single dose 1 mg oral, median (range)): 0.97 (0.5–2.0) h
- Overall disease control rate (solid tumors): 44.4%
- Median time to Cmax ([3]; Western patients with advanced cancers): ≤ 2 h
- Mean accumulation ratio at steady state ([3]; Western patients): 2.4 fold
- t1/2 (plasma elimination, biphasic kinetics) ([3]; Western patients): approximately 2 days
- Cmax ([3]; multiple dosing 1 mg QD oral, N=6, ref de Bono et al 2017): 21.0 (7.99) ng/mL
- Tmax [3, 8]: 1.02 (0.75–2.00) h
- CL/F [3, 8]: 5.24 (1.39) L/h
- Cmax ([3]; single dosing 1 mg oral, N=5, US/UK sites, ref de Bono et al 2017): 10.6 (4.22) ng/mL
- t1/2 ([3]; single dosing 1 mg oral, arithmetic mean ± standard deviation, ref de Bono et al 2017): 52.9 ± 13.4 h
- VZ/F ([3]; single dosing 1 mg oral, column uncertain, ref de Bono et al 2017): 415 (170) L
- Tmax [3, 9]: 1.03 (0.73–2.07) h
- CL/F [3, 9]: 5.39 (1.59) L/h
- Geometric mean Ctrough (steady-state trough concentrations) [4]: 3.346 ng/mL
- Grade 3–4 TEAE: thrombocytopenia ([5]; 42/286): 15%
- Grade 3–4 TEAE: neutropenia ([5]; 60/286): 21%
- Grade 3–4 TEAE: anemia ([5]; 112/286): 39%
